Publication PMC4584933, “Establishing the pig as a large animal model for vaccine development against human cancer” (Frontiers in Genetics, 2015)

Key:
[1] = test system: SLA-1*04:01; assay: Peptide-MHC class I complex stability, scintillation proximity assay (SPA); parameters: species or system pig; conditions: biotinylated recombinant SLA heavy chain, 125I-β2m, excess unlabeled β2m, read every 40 min, number only if t1/2 ≥ 0.5 h, '-' = not stably binding
How it was run: (§1)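 Biotinylated recombinant heavy chains captured on streptavidin scintillation plates with 125I-β2m and peptide; signal read every 40 min under dissociating conditions with excess unlabeled β2m. Signal duration gives complex half-life; ≥ 0.5 h counted as stable binder.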

[2] = test system: SLA-1*07:02; assay: as above; parameters: species or system pig; conditions: biotinylated recombinant SLA heavy chain, 125I-β2m, excess unlabeled β2m, read every 40 min, number only if t1/2 ≥ 0.5 h, '-' = not stably binding
How it was run: as §1

[3] = test system: PBMCs; assay: In vitro peptide stimulation of porcine PBMCs, IFN-γ release assay (ELISA); assay type: cell-based, pig; parameters: key to T cell response: “x” indicates that a response was found to this given peptide at least once; conditions: PBMCs of immunized pigs, 2 × 10^5/well, 5 μg/ml peptide, 67.5–70.0 h, IFN-γ ELISA; response = 2-fold increase vs day -2 and at least 25 pg/ml IFN-γ, found at least once; SLA restriction not included
[4] = test system: SLA-2*04:01; assay: Peptide-MHC class I complex stability, scintillation proximity assay (SPA); parameters: species or system pig; conditions: biotinylated recombinant SLA heavy chain, 125I-β2m, excess unlabeled β2m, read every 40 min, number only if t1/2 ≥ 0.5 h, '-' = not stably binding
How it was run: as §1

[5] = test system: SLA-3*04:01; assay: as above; parameters: species or system pig; conditions: biotinylated recombinant SLA heavy chain, 125I-β2m, excess unlabeled β2m, read every 40 min, number only if t1/2 ≥ 0.5 h, '-' = not stably binding
How it was run: as §1

Sequence | Binder (t1/2 ≥ 0.5 h): half-life of peptide-SLA-1*04:01 complex [1] | Binder (t1/2 ≥ 0.5 h): half-life of peptide-SLA-1*07:02 complex [2] | T cell response [3] | further results
AIAKNLPEL [IDO2, porcine IDO-derived 9-11mer peptide] | - (t1/2 (hours) is listed for each of the stably binding peptides (t1/2 ≥ 0.5 h)) |  |  | 
ALEVFHQIHEY [IDO4, porcine IDO-derived 9-11mer peptide] | - (t1/2 (hours) is listed for each of the stably binding peptides (t1/2 ≥ 0.5 h)) |  |  | 
CPNVPIILV [RhoC5, porcine RhoC-derived 9-11mer peptide] |  | 0.7 h | x | 
DMANRISAFGY [RhoC8, porcine RhoC-derived 9-11mer peptide] |  | - (t1/2 (hours) is listed for each of the stably binding peptides (t1/2 ≥ 0.5 h)) | x | Binder (t1/2 ≥ 0.5 h): half-life of peptide-SLA-2*04:01 complex [4]: 1.1 h
DPSGPMTYKNM [IDO12, porcine IDO-derived 9-11mer peptide] |  | 0.5 h | x | 
DTDVILMCF [RhoC10, porcine RhoC-derived 9-11mer peptide] | 1.3 h |  |  | 
DYDRLRPLSY [RhoC13, porcine RhoC-derived 9-11mer peptide] | - (t1/2 (hours) is listed for each of the stably binding peptides (t1/2 ≥ 0.5 h)) |  |  | 
EVDGKQVEL [RhoC21, porcine RhoC-derived 9-11mer peptide] | - (t1/2 (hours) is listed for each of the stably binding peptides (t1/2 ≥ 0.5 h)) |  |  | 
EVDGKQVELAL [RhoC22, porcine RhoC-derived 9-11mer peptide] | 0.6 h |  |  | 
EVFHQIHEY [IDO21, porcine IDO-derived 9-11mer peptide] |  | 10.1 h | x | Binder (t1/2 ≥ 0.5 h): half-life of peptide-SLA-2*04:01 complex [4]: 23.8 h
EVYVPTVFENY [RhoC25, porcine RhoC-derived 9-11mer peptide] |  | 4.4 h |  | Binder (t1/2 ≥ 0.5 h): half-life of peptide-SLA-2*04:01 complex [4]: 0.6 h
GVPSGSAAGF [IDO34, porcine IDO-derived 9-11mer peptide] | - (t1/2 (hours) is listed for each of the stably binding peptides (t1/2 ≥ 0.5 h)) |  |  | 
HIDEDLGFAL [IDO35, porcine IDO-derived 9-11mer peptide] | - (t1/2 (hours) is listed for each of the stably binding peptides (t1/2 ≥ 0.5 h)) |  |  | 
KKDPSGPMTY [IDO51, porcine IDO-derived 9-11mer peptide] | - (t1/2 (hours) is listed for each of the stably binding peptides (t1/2 ≥ 0.5 h)) |  |  | 
KLFFNVLRIY [IDO53, porcine IDO-derived 9-11mer peptide] |  | - (t1/2 (hours) is listed for each of the stably binding peptides (t1/2 ≥ 0.5 h)) |  | Binder (t1/2 ≥ 0.5 h): half-life of peptide-SLA-3*04:01 complex [5]: - (t1/2 (hours) is listed for each of the stably binding peptides (t1/2 ≥ 0.5 h))
LGLPPILVY [IDO65, porcine IDO-derived 9-11mer peptide] |  | - (t1/2 (hours) is listed for each of the stably binding peptides (t1/2 ≥ 0.5 h)) |  | Binder (t1/2 ≥ 0.5 h): half-life of peptide-SLA-2*04:01 complex [4]: - (t1/2 (hours) is listed for each of the stably binding peptides (t1/2 ≥ 0.5 h))
LPRNIAIPY [IDO70, porcine IDO-derived 9-11mer peptide] |  | 1.0 h | x | 
LVLGYITMAY [IDO73, porcine IDO-derived 9-11mer peptide] |  | 4.0 h |  | Binder (t1/2 ≥ 0.5 h): half-life of peptide-SLA-2*04:01 complex [4]: 0.8 h
LWDTAGQEDY [RhoC38, porcine RhoC-derived 9-11mer peptide] | - (t1/2 (hours) is listed for each of the stably binding peptides (t1/2 ≥ 0.5 h)) |  |  | 
MALDWWSPM [IDO75, porcine IDO-derived 9-11mer peptide] |  | 0.5 h | x | Binder (t1/2 ≥ 0.5 h): half-life of peptide-SLA-3*04:01 complex [5]: - (t1/2 (hours) is listed for each of the stably binding peptides (t1/2 ≥ 0.5 h))
MPPAHRNFLH [IDO77, porcine IDO-derived 9-11mer peptide] |  | - (t1/2 (hours) is listed for each of the stably binding peptides (t1/2 ≥ 0.5 h)) |  | 

Sequence | Binder (t1/2 ≥ 0.5 h): half-life of peptide-SLA-1*04:01 complex [1] | Binder (t1/2 ≥ 0.5 h): half-life of peptide-SLA-1*07:02 complex [2] | T cell response [3] | further results
MQRLAHLVLGY [IDO79, porcine IDO-derived 9-11mer peptide] |  | - (t1/2 (hours) is listed for each of the stably binding peptides (t1/2 ≥ 0.5 h)) |  | Binder (t1/2 ≥ 0.5 h): half-life of peptide-SLA-3*04:01 complex [5]: - (t1/2 (hours) is listed for each of the stably binding peptides (t1/2 ≥ 0.5 h)); Binder (t1/2 ≥ 0.5 h): half-life of peptide-SLA-2*04:01 complex [4]: - (t1/2 (hours) is listed for each of the stably binding peptides (t1/2 ≥ 0.5 h))
MVSLRNYHL [IDO83, porcine IDO-derived 9-11mer peptide] | - (t1/2 (hours) is listed for each of the stably binding peptides (t1/2 ≥ 0.5 h)) |  |  | 
NPLEELPHPY [IDO86, porcine IDO-derived 9-11mer peptide] |  | 5.2 h |  | 
NPLLSEGLLY [IDO88, porcine IDO-derived 9-11mer peptide] |  | 24.0 h | x | 
NSWKIFEEY [IDO89, porcine IDO-derived 9-11mer peptide] |  | - (t1/2 (hours) is listed for each of the stably binding peptides (t1/2 ≥ 0.5 h)) |  | Binder (t1/2 ≥ 0.5 h): half-life of peptide-SLA-2*04:01 complex [4]: 0.7 h
PLEELPHPY [IDO94, porcine IDO-derived 9-11mer peptide] | - (t1/2 (hours) is listed for each of the stably binding peptides (t1/2 ≥ 0.5 h)) |  |  | 
PLLSEGLLY [IDO95, porcine IDO-derived 9-11mer peptide] |  | 0.7 h |  | 
PMDNSWKIF [IDO96, porcine IDO-derived 9-11mer peptide] | 0.7 h |  |  | 
PPAHRNFLH [IDO97, porcine IDO-derived 9-11mer peptide] |  | 1.1 h | x | 
PPAHRNFLHSL [IDO98, porcine IDO-derived 9-11mer peptide] |  | 0.7 h | x | 
PPILVYADCV [IDO99, porcine IDO-derived 9-11mer peptide] |  | 3.5 h | x | 
QAMVSLRNY [IDO100, porcine IDO-derived 9-11mer peptide] |  | - (t1/2 (hours) is listed for each of the stably binding peptides (t1/2 ≥ 0.5 h)) |  | 
RGTGGTNVIDF [IDO103, porcine IDO-derived 9-11mer peptide] | - (t1/2 (hours) is listed for each of the stably binding peptides (t1/2 ≥ 0.5 h)) |  |  | 
RPLSYPDTDV [RhoC46, porcine RhoC-derived 9-11mer peptide] |  | - (t1/2 (hours) is listed for each of the stably binding peptides (t1/2 ≥ 0.5 h)) |  | 
SPMDNSWKI [IDO119, porcine IDO-derived 9-11mer peptide] |  | 1.9 h | x | 
SPMDNSWKIF [IDO120, porcine IDO-derived 9-11mer peptide] |  | 2.6 h | x | 
VPSGSAAGF [IDO128, porcine IDO-derived 9-11mer peptide] |  | - (t1/2 (hours) is listed for each of the stably binding peptides (t1/2 ≥ 0.5 h)) |  | Binder (t1/2 ≥ 0.5 h): half-life of peptide-SLA-2*04:01 complex [4]: - (t1/2 (hours) is listed for each of the stably binding peptides (t1/2 ≥ 0.5 h))
YHLQIVTKY [IDO134, porcine IDO-derived 9-11mer peptide] |  | - (t1/2 (hours) is listed for each of the stably binding peptides (t1/2 ≥ 0.5 h)) |  | Binder (t1/2 ≥ 0.5 h): half-life of peptide-SLA-2*04:01 complex [4]: - (t1/2 (hours) is listed for each of the stably binding peptides (t1/2 ≥ 0.5 h))
YPDTDVILM [RhoC58, porcine RhoC-derived 9-11mer peptide] |  | 1.2 h | x | 
YVPTVFENY [RhoC60, porcine RhoC-derived 9-11mer peptide] |  | - (t1/2 (hours) is listed for each of the stably binding peptides (t1/2 ≥ 0.5 h)) |  | Binder (t1/2 ≥ 0.5 h): half-life of peptide-SLA-2*04:01 complex [4]: - (t1/2 (hours) is listed for each of the stably binding peptides (t1/2 ≥ 0.5 h))
